# Data reported in patent US11414424B2, “Cardiac sarcomere inhibitors” (Cytokinetics, Inc., priority 2018, dated 2022).
# Tested on: bovine cardiac myofibrils
# Assay: Myofibril assay: PK/LDH-coupled steady-state ATPase activity of skinned bovine cardiac myofibrils
# Format: biochemical
# Conditions: Ca2+ activating to 75% of maximal rate
# In short: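 Steady-state ATPase of detergent-skinned bovine left-ventricular myofibrils (1 mg/mL), PK/LDH-coupled NADH read at 340 nm, in PIPES/MgCl2 buffer pH 6.8 with 50 μM ATP, 0.6 mM EGTA and CaCl2 set for 50% or 75% activation. Inhibition of activity measured.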
row,Compound,CDMF75 IC15 [µM]
1,"Cc1cnc(N2CC(=O)N(Cc3ccc(C(F)(F)F)cc3)C(C3COC3)C2=O)c(F)c1 (racemic) [Compound 691, 1-(3-fluoro-5-methylpyridin-2-yl)-3-(oxetan-3-yl)-4-(4-(trifluoromethyl)benzyl)piperazine-2,5-dione]",27.6
2,"CC1(CO)C(=O)N(c2ccc(C#N)cc2F)CC(=O)N1Cc1ccc(C(F)(F)F)cc1 (stereo not drawn) [Compound 269, 3-fluoro-4-(3-(hydroxy-methyl)-3-methyl-2,5-dioxo-4-(4-(trifluoro-methyl)benzyl)piperazin-1-yl)benzonitrile]",1.2
3,"O=C1C(C2CCS(=O)(=O)CC2)N(Cc2ccc(C(F)(F)F)cc2)C(=O)CN1c1ncc(Cl)cc1F (stereo not drawn) [Compound 689, 1-(5-chloro-3-fluoropyridin-2-yl)-3-(1,1-dioxidotetra-hydro-2H-thiopyran-4-yl)-4-(4-(trifluoromethyl)-benzyl)piperazine-2,5-dione]",27.9
4,"Cc1cnc(N2CC3(C2)C(=O)N(C(C)C)CC(=O)N3Cc2ccc(Cl)cc2)s1 [Compound 44, 5-(4-chlorobenzyl)-8-isopropyl-2-(5-methyl-thiazol-2-yl)-2,5,8-triazaspiro[3.5]nonane-6,9-dione]",2.4
5,"COC(=O)N1CC[C@]2(C1)C(=O)N(c1ccc(C#N)cc1F)CC(=O)N2Cc1ccc(Cl)cc1 [Compound 211, methyl (S)-6-(4-chlorobenzyl)-9-(4-cyano-2-fluorophenyl)-7,10-dioxo-2,6,9-triazaspiro-[4.5]decane-2-carboxylate]",0.4
6,"Cc1cc(N2CCC3(C2=O)C(=O)N(C(C)C)CC(=O)N3Cc2ccc(Cl)cc2)ccn1 (stereo not drawn) [Compound 333, 6-(4-chlorobenzyl)-9-isopropyl-2-(2-methyl-pyridin-4-yl)-2,6,9-triazaspiro[4.5]decane-1,7,10-trione]",16.6
7,"Cc1ccc(N2CC3(C2)C(=O)N(C(C)C)CC(=O)N3Cc2ccc(Cl)cc2)nn1 [Compound 55, 5-(4-chlorobenzyl)-8-isopropyl-2-(6-methylpyridazin-3-yl)-2,5,8-triazaspiro[3.5]-nonane-6,9-dione]",6.7
8,"CNC(=O)N1CC2(C1)C(=O)N(Cc1ccc(Cl)cc1)CC(=O)N2Cc1ccc(C(F)(F)F)cc1 [Compound 337, 8-(4-chlorobenzyl)-N-methyl-6,9-dioxo-5-(4-(trifluoromethyl)benzyl)-2,5,8-triazaspiro[3.5]-nonane-2-carboxamide]",1.63
9,"N#Cc1ccc(N2CC(=O)N(Cc3ccc(C(F)(F)F)cc3)C(C3COC3)C2=O)c(F)c1 (stereo not drawn) [Compound 282, 3-fluoro-4-(3-(oxetan-3-yl)-2,5-dioxo-4-(4-(trifluoromethyl)benzyl)-piperazin-1-yl)benzonitrile]",3.8
10,"CNC(=O)N1CC2(C1)C(=O)N(c1ccc(Cl)cn1)CC(=O)N2Cc1ccc(C(F)(F)F)cc1 [Compound 156, 8-(5-chloropyridin-2-yl)-N-methyl-6,9-dioxo-5-(4-(trifluoromethyl)benzyl)-2,5,8-triazaspiro[3.5]-nonane-2-carboxamide]",7.1
11,"C#Cc1ccc(N2CC(=O)N(Cc3ccc(C4(C(F)(F)F)N=N4)cc3)C3(CN(C(=O)NC)C3)C2=O)c(F)c1 [Compound 178, 8-(4-ethynyl-2-fluoro-phenyl)-N-methyl-6,9-dioxo-5-(4-(3-(trifluoromethyl)-3H-diazirin-3-yl)benzyl)-2,5,8-triazaspiro[3.5]nonane-2-carboxamide]",0.8
12,"O=C1[C@H](C2CCC2)N(Cc2ccc(C(F)(F)F)cc2)C(=O)CN1c1ncc(Cl)cc1F [Compound 555, (S)-1-(5-chloro-3-fluoro-pyridin-2-yl)-3-cyclobutyl-4-(4-(trifluoromethyl)-benzyl)piperazine-2,5-dione]",0.9
13,"CC(=O)NC[C@@H]1C(=O)N(c2ncc(Cl)cc2F)CC(=O)N1Cc1ccc(C(F)(F)F)cc1 [Compound 626, (R)-N-((4-(5-chloro-3-fluoropyridin-2-yl)-3,6-dioxo-1-(4-(trifluoro-methyl)benzyl)piperazin-2-yl)methyl)acetamide]",>39
14,"Cc1ccc(N2CC3(C2)C(=O)N(C(C)C)CC(=O)N3Cc2ccc(Cl)cc2)cn1 [Compound 14, 5-(4-chlorobenzyl)-8-isopropyl-2-(6-methyl-pyridin-3-yl)-2,5,8-triazaspiro[3.5]nonane-6,9-dione]",6.0
15,Cc1coc([C@H]2C[C@]3(C2)C(=O)N(c2ccc(C#N)cc2F)CC(=O)N3Cc2ccc(C(F)(F)F)cc2)n1 [Compound 442B],0.4
16,"CNC(=O)N1CCC2(C1)C(=O)N(c1ccc(C#N)cc1)CC(=O)N2Cc1ccc(Cl)cc1 (stereo not drawn) [Compound 185, 6-(4-chlorobenzyl)-9-(4-cyanophenyl)-N-methyl-7,10-dioxo-2,6,9-triazaspiro[4.5]decane-2-carboxamide]",3.2
17,"O=C1CN(c2ccc(Cl)cc2F)C(=O)C2(COC2)N1Cc1ccc(F)cc1 [Compound 799, 8-(4-chloro-2-fluoro-phenyl)-5-(4-fluorobenzyl)-2-oxa-5,8-diazaspiro-[3.5]nonane-6,9-dione]",3.9
18,"CC(=O)N1CC(C2C(=O)N(c3ncc(Cl)cc3F)CC(=O)N2Cc2ccc(C(F)(F)F)cc2)C1 (stereo not drawn) [Compound 643, 3-(1-acetylazetidin-3-yl)-1-(5-chloro-3-fluoropyridin-2-yl)-4-(4-(trifluoro-methyl)benzyl)piperazine-2,5-dione]",5.8
19,"CC(C)N1CC(=O)N(Cc2ccc(Cl)cc2)C2(CN(c3ccc(C(F)(F)F)nn3)C2)C1=O [Compound 53, 5-(4-chlorobenzyl)-8-isopropyl-2-(6-(trifluoromethyl)pyridazin-3-yl)-2,5,8-triazaspiro-[3.5]nonane-6,9-dione]",14.7
20,"CNC(=O)N1CC2(C1)C(=O)N([C@H]1CC[C@@H](C#N)C1)CC(=O)N2Cc1ccc(C(F)(F)F)cc1 [Compound 321, 8-((1S,3R)-3-cyano-cyclopentyl)-N-methyl-6,9-dioxo-5-(4-(trifluoromethyl)benzyl)-2,5,8-triazaspiro[3.5]-nonane-2-carboxamide]",22.1
21,"Cc1cc(N2CC3(C2)C(=O)N(C(C)C)CC(=O)N3Cc2ccc(Cl)cc2)n[nH]1 [Compound 26, 5-(4-chlorobenzyl)-8-isopropyl-2-(5-methyl-1H-pyrazol-3-yl)-2,5,8-triazaspiro[3.5]nonane-6,9-dione]",3.0
22,"CC(C)N1CC(=O)N(Cc2ccc(Cl)cc2)C2(CC(c3ccccc3)C2)C1=O (stereo not drawn) [Compound 318, 5-(4-chlorobenzyl)-8-isopropyl-2-phenyl-5,8-diazaspiro[3.5]nonane-6,9-dione]",7.3
23,"C[C@@H](c1ccc(Cl)cc1)N1C(=O)CN(c2ncc(Cl)cc2F)C(=O)C12CN(C(=O)NC1CC1)C2 [Compound 559, (S)-8-(5-chloro-3-fluoro-pyridin-2-yl)-5-(1-(4-chlorophenyl)ethyl)-N-cyclopropyl-6,9-dioxo-2,5,8-triazaspiro[3.5]-nonane-2-carboxamide]",25.1
24,"Cc1ccc(CN2C(=O)CN(c3ncc(Cl)cc3F)C(=O)[C@H]2C23CC(C(N)=O)(C2)C3)cc1 [Compound 824, (R)-3-(4-(5-chloro-3-fluoropyridin-2-yl)-1-(4-methylbenzyl)-3,6-dioxopiperazin-2-yl)-bicyclo[1.1.1]pentane-1-carboxamide]",>39
